Paper PMC3656107, “Polymorphisms in the F8 Gene and MHC-II Variants as Risk Factors for the Development of Inhibitory Anti-Factor VIII Antibodies during the Treatment of Hemophilia A: A Computational Assessment” (PLoS Computational Biology, 2013)

Assays:
MHC-II DRB1*15:03 [1] = biological target: T1, MHC-II DRB1*15:03 (Homo sapiens, UniProt P01903+P01911, Y59H); test: Cell-free REVEAL class II binding assay; conditions: signal of test peptide as percentage of allele-specific positive control peptide, fluorescence, conformation-specific monoclonal antibody
T1 construct: purchased ProImmune
T1 sequence (P01903 26-254, other chains not shown): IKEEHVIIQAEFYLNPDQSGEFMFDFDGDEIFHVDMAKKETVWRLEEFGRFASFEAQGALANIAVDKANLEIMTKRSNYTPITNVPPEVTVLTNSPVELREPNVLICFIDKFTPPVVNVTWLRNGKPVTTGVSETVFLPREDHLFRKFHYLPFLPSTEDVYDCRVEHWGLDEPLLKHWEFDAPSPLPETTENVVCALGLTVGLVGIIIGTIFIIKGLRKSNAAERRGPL
Excerpt: (§1) We used a proprietary high throughput, REVEAL binding assay (ProImmune, www.proimmune.com) to estimate the binding of individual test peptides to the following MHC-II variants: DRB1*03:01, DRB1*04:01, DRB1*07:01, DRB1*11:01, DRB1*15:01 and DRB1*15:03 [28]. Detection of a peptide binding to each MHC-II protein is based on the presence or absence of the native conformation of the MHC-peptide complex. The peptide-MHC-II complex is detected by an increase in a fluorescence signal due to the binding of a specific monoclonal antibody. Each test-peptide is given a score relative to a positive control peptide, which is a known T-cell epitope for that MHC-II molecule. The score is reported quantitatively as a percentage of the signal generated by the test peptide compared with the positive control peptide. Assay performance is evaluated by including in each set of measurements an intermediate control peptide which is known to bind the MHC-II molecule but with a lower affinity than the positive control peptide. Note that the positive control peptide used to determine the binding score is different from the positive control peptides depicted in the figures, which are known T-cell epitopes identified in the FVIII molecule.

MHC-II DRB1*03:01 [2] = biological target: T2, MHC-II DRB1*03:01 (Homo sapiens, UniProt P01903+P01911, A100K/A102G/A103R/A169T/F55Y/I96L/K41T/L162R/M171V/P40S/Q125H/Q178H/Q39Y/R42S/S66N/T106N/T262R/W38E/Y61H); test: Cell-free REVEAL class II binding assay; conditions: signal of test peptide as percentage of allele-specific positive control peptide, fluorescence, conformation-specific monoclonal antibody
T2 sequence (P01903 26-254 limits assumed, other chains not shown): as the sequence (P01903 26-254, other chains not shown) above
Excerpt: as §1

MHC-II DRB1*11:01 [3] = biological target: T3, MHC-II DRB1*11:01 (Homo sapiens, UniProt P01903+P01911, A100R/A169T/A87E/I96F/K41T/L162R/M171V/P40S/Q125H/Q178H/Q39Y/Q99D/R42S/S66Y/T262R/V115G/W38E); test: Cell-free REVEAL class II binding assay; conditions: signal of test peptide as percentage of allele-specific positive control peptide, fluorescence, conformation-specific monoclonal antibody
T3 sequence (P01903 26-254 limits assumed, other chains not shown): as the sequence (P01903 26-254, other chains not shown) above
Excerpt: as §1

MHC-II DRB1*07:01 [4] = biological target: T4, MHC-II DRB1*07:01 (Homo sapiens, UniProt P01903+P01911, A100R/A102G/A103Q/D57E/D86V/E43K/F76Y/K127E/L162R/M171V/P40G/Q125H/Q99D/R33Q/R42Y/R54Q/S133A/S66F/T210M/V115G/Y107V/Y59L/Y89S); test: Cell-free REVEAL class II binding assay; conditions: signal of test peptide as percentage of allele-specific positive control peptide, fluorescence, conformation-specific monoclonal antibody
Excerpt: as §1

MHC-II DRB1*15:01 [5] = biological target: T5, MHC-II DRB1*15:01 (Homo sapiens, UniProt P01903+P01911); test: Cell-free REVEAL class II binding assay; conditions: signal of test peptide as percentage of allele-specific positive control peptide, fluorescence, conformation-specific monoclonal antibody
T5 construct: purchased ProImmune
Excerpt: as §1

MHC-II DRB1*04:01 [6] = biological target: T6, MHC-II DRB1*04:01 (Homo sapiens, UniProt P01903+P01911, A100K/A169T/F76Y/I96L/K127E/L162R/M171V/N62H/P40V/Q125Y/R42H/S133A/S149N/S66Y/V115G/V209L/W38E); test: Cell-free REVEAL class II binding assay; conditions: signal of test peptide as percentage of allele-specific positive control peptide, fluorescence, conformation-specific monoclonal antibody
Excerpt: as §1

MHC-II DRB1*15:03 [7] = biological target: T1, MHC-II DRB1*15:03; test: Cell-free REVEAL class II stability assay; conditions: half-life of peptide-MHC-II complex (h, capped at 120) x Binding Score / 100, conformational ELISA
Description: (§2) We measured the half-life of each peptide-MHC-II complex using REVEAL peptide-MHC affinity assays developed by ProImmune Ltd. (Oxford, UK). On-rates of peptides were measured over a 96-hr period at 10°C. A unique positive control peptide was used for each MHC-II allele. Samples of assembling peptide-MHC complexes were taken at defined time points and snap-frozen in liquid nitrogen prior to analysis. Assembly of peptide-MHC complexes was detected using a conformational ELISA involving an anti-HLA antibody. On-rates were calculated by fitting data to a one-phase association curve: [drawing 1] To determine the off-rates of the peptides, samples of dissociating complexes were taken at defined time points and frozen in liquid nitrogen prior to analysis. Percent denaturation of peptide-MHC complexes was also detected using a conformational ELISA. Off-rates were calculated by fitting data to a one-phase dissociation curve: [drawing 2] On- and off-rate half-life values (t1/2) were calculated from the rate constant (k) using the following equation: [drawing 3] To obtain a normalized stability score, the half-life values were multiplied by the Binding Score (see above) and divided by 100.

MHC-II DRB1*03:01 [8] = biological target: T2, MHC-II DRB1*03:01; test: Cell-free REVEAL class II stability assay; conditions: half-life of peptide-MHC-II complex (h, capped at 120) x Binding Score / 100, conformational ELISA
Description: as §2

MHC-II DRB1*11:01 [9] = biological target: T3, MHC-II DRB1*11:01; test: Cell-free REVEAL class II stability assay; conditions: half-life of peptide-MHC-II complex (h, capped at 120) x Binding Score / 100, conformational ELISA
Description: as §2

MHC-II DRB1*07:01 [10] = biological target: T4, MHC-II DRB1*07:01; test: Cell-free REVEAL class II stability assay; conditions: half-life of peptide-MHC-II complex (h, capped at 120) x Binding Score / 100, conformational ELISA
Description: as §2

MHC-II DRB1*15:01 [11] = biological target: T5, MHC-II DRB1*15:01; test: Cell-free REVEAL class II stability assay; conditions: half-life of peptide-MHC-II complex (h, capped at 120) x Binding Score / 100, conformational ELISA
Description: as §2

MHC-II DRB1*04:01 [12] = biological target: T6, MHC-II DRB1*04:01; test: Cell-free REVEAL class II stability assay; conditions: half-life of peptide-MHC-II complex (h, capped at 120) x Binding Score / 100, conformational ELISA
Description: as §2

| Sequence | Binding Score (MHC-II DRB1*15:03 [1]) | Binding Score (MHC-II DRB1*03:01 [2]) | Binding Score (MHC-II DRB1*11:01 [3]) | Binding Score (MHC-II DRB1*07:01 [4]) | Binding Score (MHC-II DRB1*15:01 [5]) | Binding Score (MHC-II DRB1*04:01 [6]) | Stability Index (MHC-II DRB1*15:03 [7]) | Stability Index (MHC-II DRB1*03:01 [8]) | Stability Index (MHC-II DRB1*11:01 [9]) | Stability Index (MHC-II DRB1*07:01 [10]) | Stability Index (MHC-II DRB1*15:01 [11]) | Stability Index (MHC-II DRB1*04:01 [12]) |
| --- | --- | --- | --- | --- | --- | --- | --- | --- | --- | --- | --- | --- |
| PENDIEKTDPWFAHR [synthetic wild type FVIII 15 mer peptide, region of ns-SNP R776G] | 0.3% | 0.0% | 2.9% | 0.0% | 0.1% | 0.7% | 0.0 | 0.0 | 0.1 | 0.0 | 0.1 | 0.1 |
| PIIARYIRLHPTHYS [synthetic wild type FVIII 15 mer peptide] | 11.1% | 0.3% | 118.8% | 0.0% | 917.4% | 25.4% | 13.3 | 0.0 | 9.0 | 0.0 | 1100.9 | 6.9 |
| PLLTRYLRIHPQSWV [synthetic wild type FVIII 15 mer peptide] | 10.7% | 0.0% | 62.8% | 1.7% | 714.7% | 12.1% | 12.8 | 0.0 | 8.8 | 2.0 | 857.7 | 1.4 |
| PPLLTRYLRIHPQSW [synthetic wild type FVIII 15 mer peptide] | 21.7% | 0.0% | 42.2% | 7.0% | 403.3% | 9.6% | 26.0 | 0.0 | 5.9 | 8.4 | 483.9 | 0.9 |
| PQVNNPKEWLQVDFQ [synthetic wild type FVIII 15 mer peptide] | 0.0% | 0.0% | 0.1% | 0.0% | 0.1% | 0.0% | 0.0 | 0.0 | 0.0 | 0.0 | 0.2 | 0.0 |
| PRCLTRYYSSFVNME [synthetic wild type FVIII 15 mer peptide] | 72.3% | 0.9% | 20.5% | 0.0% | 336.9% | 9.6% | 86.8 | 0.1 | 1.2 | 0.0 | 404.2 | 0.7 |
| PWFAHRTPMPKIQNV [synthetic wild type FVIII 15 mer peptide, region of ns-SNP R776G] | 0.2% | 0.1% | 4.9% | 2.7% | 4.7% | 6.4% | 0.0 | 0.1 | 0.5 | 3.2 | 0.4 | 0.8 |
| QKFSSLYISQFIIMY [synthetic wild type FVIII 15 mer peptide] | 0.0% | 0.5% | 0.4% | 0.0% | 22.9% | 1.9% | 0.0 | 0.1 | 0.0 | 0.0 | 27.5 | 0.2 |
| QKTMKVTGVTTQGVK [synthetic wild type FVIII 15 mer peptide, region of ns-SNP M2238V] | 0.0% | 0.0% | 0.1% | 0.0% | 0.8% | 6.6% | 0.0 | 0.0 | 0.0 | 0.0 | 0.5 | 0.5 |
| RIHPQSWVHQIALRM [synthetic wild type FVIII 15 mer peptide] | 1.4% | 0.0% | 74.9% | 2.1% | 8.3% | 54.3% | 0.1 | 0.0 | 4.5 | 2.6 | 10.0 | 12.6 |
| RQNVEGSYDGAYAPV [synthetic wild type FVIII 15 mer peptide, region of ns-SNP D1241E] | 0.0% | 0.0% | 0.1% | 0.0% | 0.0% | 0.0% | 0.0 | 0.0 | 0.0 | 0.0 | 0.0 | 0.0 |
| RSNAWRPQVNNPKEW [synthetic wild type FVIII 15 mer peptide] | 0.0% | 0.0% | 0.1% | 0.0% | 0.4% | 18.2% | 0.0 | 0.0 | 0.0 | 0.0 | 0.5 | 12.4 |
